# Results as given in paper PMC11129182, “Development of Inhibitors, Probes, and PROTAC Provides a Complete Toolbox to Study PARK7 in the Living Cell” (Journal of Medicinal Chemistry, 2024).
# Biological target: T1, PARK7 (Homo sapiens, UniProt Q99497)
# T1 sequence (Q99497 1-189): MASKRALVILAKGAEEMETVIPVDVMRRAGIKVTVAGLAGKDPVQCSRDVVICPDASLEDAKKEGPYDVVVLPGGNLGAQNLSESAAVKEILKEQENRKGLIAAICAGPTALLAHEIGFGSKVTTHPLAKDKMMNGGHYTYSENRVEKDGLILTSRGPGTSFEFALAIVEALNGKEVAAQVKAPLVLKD
# Assay: High-throughput screen of the crude compound library, PARK7 fluorescence polarization (FP) assay with FP reagent JYQ-107
# Assay type: biochemical
# Conditions: 1.25 µM, crude compound library; read-out: HTS FP assay %Inhibition (1.25 µM)
# Description: Therefore, taking JYQ-88 as a starting point, we conducted an optimization to further improve the molecule in terms of inhibitory potency, specificity, and cellular uptake. […] First, a small tailored library was designed and synthesized to investigate whether the introduction of larger, hydrophilic substituents on JYQ-88 would enhance the interaction with the PARK7 pocket. […] The second approach involved the generation of a compound library containing diverse substituents at the azidomethyl position. […] We next performed a high-throughput screen of this crude compound library using our in-house developed PARK7 fluorescence polarization (FP) assay.[15]
row,inhibition at 1.25 µM [%],Compound
1,81,N#CN1CC[C@@H](C(=O)Nc2nc3c(s2)CN(C(=O)c2cc(S(=O)(=O)N4CCOCC4)c[nH]2)CC3)C1 [compound 115]
2,81.9,COc1ccc(OCc2cc(C)on2)c(C(=O)N2CCc3nc(NC(=O)[C@@H]4CCN(C#N)C4)sc3C2)c1 [compound 116]
3,71.4,N#CN1CC[C@@H](C(=O)Nc2nc3c(s2)CN(C(=O)C2CC(=O)N(CCN4CCOCC4)C2)CC3)C1 (some centres unmarked) [compound 117]
4,83.7,N#CN1CC[C@@H](C(=O)Nc2nc3c(s2)CN(C(=O)Cc2cccc(OCc4cccnc4)c2)CC3)C1 [compound 118]
5,71.9,CN(Cc1cccnc1)S(=O)(=O)c1cc(C(=O)N2CCc3nc(NC(=O)[C@@H]4CCN(C#N)C4)sc3C2)n(C)c1 [compound 119]
6,46.4,Cc1n[nH]c(C)c1S(=O)(=O)N1CCC(C(=O)N2CCc3nc(NC(=O)[C@@H]4CCN(C#N)C4)sc3C2)CC1 [compound 120]
7,70.9,N#CN1CC[C@@H](C(=O)Nc2nc3c(s2)CN(C(=O)c2occc2CN2CCOCC2)CC3)C1 [compound 122]
8,67.6,N#CN1CC[C@@H](C(=O)Nc2nc3c(s2)CN(C(=O)c2ccc(COc4ccccc4Br)cc2)CC3)C1 [compound 123]
9,85.6,N#CN1CC[C@@H](C(=O)Nc2nc3c(s2)CN(C(=O)c2cccc(-c4cnco4)c2)CC3)C1 [compound 124]
10,85.7,N#CN1CC[C@@H](C(=O)Nc2nc3c(s2)CN(C(=O)c2ccc(N4NC(=O)CCC4=O)cc2)CC3)C1 [compound 125]
11,70.6,Cc1nc(C(=O)N2CCc3nc(NC(=O)[C@@H]4CCN(C#N)C4)sc3C2)co1 [compound 126]
12,83.8,N#CN1CC[C@@H](C(=O)Nc2nc3c(s2)CN(C(=O)c2ccc(=O)n(Cc4ccccc4)n2)CC3)C1 [compound 127]
13,76.5,Cc1nc(-c2cccnc2)sc1C(=O)N1CCc2nc(NC(=O)[C@@H]3CCN(C#N)C3)sc2C1 [compound 128]
14,71.3,CN1CCN(C(=O)c2ccccc2C(=O)N2CCc3nc(NC(=O)[C@@H]4CCN(C#N)C4)sc3C2)CC1 [compound 129]
15,76.2,Cc1cc(C(=O)N2CCc3nc(NC(=O)[C@@H]4CCN(C#N)C4)sc3C2)c(C)n1-c1ccon1 [compound 130]
16,73.2,N#CN1CC[C@@H](C(=O)Nc2nc3c(s2)CN(C(=O)c2ccnn2C2CCOCC2)CC3)C1 [compound 132]
17,87.6,Cn1nc(C(=O)N2CCOCC2)cc1C(=O)N1CCc2nc(NC(=O)[C@@H]3CCN(C#N)C3)sc2C1 [compound 134]
18,63,Cc1nn(C2CCOCC2)c(C)c1C(=O)N1CCc2nc(NC(=O)[C@@H]3CCN(C#N)C3)sc2C1 [compound 135]
19,80.8,N#CN1CC[C@@H](C(=O)Nc2nc3c(s2)CN(C(=O)C2CCOC4(CCC4)C2)CC3)C1 (some centres unmarked) [compound 136]
20,70.1,N#CN1CC[C@@H](C(=O)Nc2nc3c(s2)CN(C(=O)c2cnn(CCN4CCCC4)c2)CC3)C1 [compound 137]
21,81.9,N#CN1CC[C@@H](C(=O)Nc2nc3c(s2)CN(C(=O)C2(c4cccs4)CC2)CC3)C1 [compound 138]
22,59.5,N#CN1CC[C@@H](C(=O)Nc2nc3c(s2)CN(C(=O)C(c2ccccc2)n2cnnn2)CC3)C1 (some centres unmarked) [compound 141]
23,85.9,Cc1csc(N2CCCC(C(=O)N3CCc4nc(NC(=O)[C@@H]5CCN(C#N)C5)sc4C3)C2)n1 (some centres unmarked) [compound 142]
24,64.1,CC(C(=O)N1CCc2nc(NC(=O)[C@@H]3CCN(C#N)C3)sc2C1)n1nc(C(F)(F)F)cc1C1CC1 (some centres unmarked) [compound 143]
25,78.4,N#CN1CC[C@@H](C(=O)Nc2nc3c(s2)CN(C(=O)C2CCCN2C(=O)Cc2ccccc2)CC3)C1 (some centres unmarked) [compound 144]
26,83.7,N#CN1CC[C@@H](C(=O)Nc2nc3c(s2)CN(C(=O)CC2(n4cccc4)CCCCC2)CC3)C1 [compound 145]

# Second part, the compound before the results:
row,Compound,inhibition at 1.25 µM [%]
1,Cn1cc(S(=O)(=O)NCc2ccco2)cc1C(=O)N1CCc2nc(NC(=O)[C@@H]3CCN(C#N)C3)sc2C1 [compound 73],82.4
2,N#CN1CC[C@@H](C(=O)Nc2nc3c(s2)CN(C(=O)Cc2cccc(OCc4ccccn4)c2)CC3)C1 [compound 74],82.1
3,Cc1nc(-c2ncccn2)sc1C(=O)N1CCc2nc(NC(=O)[C@@H]3CCN(C#N)C3)sc2C1 [compound 75],72
4,N#CN1CC[C@@H](C(=O)Nc2nc3c(s2)CN(C(=O)c2cn(CC(=O)N4CCCC4)nn2)CC3)C1 [compound 77],84.1
5,COc1ccccc1-c1nnc(CC(=O)N2CCc3nc(NC(=O)[C@@H]4CCN(C#N)C4)sc3C2)o1 [compound 78],74.3
6,Cc1ccc(N(CCC(=O)N2CCc3nc(NC(=O)[C@@H]4CCN(C#N)C4)sc3C2)S(=O)(=O)c2ccccc2)cc1 [compound 79],87.6
7,Cn1nccc1[C@@H]1OCCC[C@H]1C(=O)N1CCc2nc(NC(=O)[C@@H]3CCN(C#N)C3)sc2C1 [compound 80],68.5
8,N#CN1CC[C@@H](C(=O)Nc2nc3c(s2)CN(C(=O)c2cc(-c4ccc(Br)cc4)ns2)CC3)C1 [compound 81],80.2
9,Cn1ncc(C2CC2)c1C(=O)N1CCc2nc(NC(=O)[C@@H]3CCN(C#N)C3)sc2C1 [compound 82],71.4
10,N#CN1CC[C@@H](C(=O)Nc2nc3c(s2)CN(C(=O)c2noc(-c4cccc(Cl)c4)n2)CC3)C1 [compound 85],63
11,Cc1c(S(=O)(=O)N2CCC(C(=O)N3CCc4nc(NC(=O)[C@@H]5CCN(C#N)C5)sc4C3)CC2)cnn1C [compound 86],70.5
12,Cc1nnnn1-c1cc(C(=O)N2CCc3nc(NC(=O)[C@@H]4CCN(C#N)C4)sc3C2)cc(C(F)(F)F)c1 [compound 87],86.5
13,CC1CCN(c2ncc(C(=O)N3CCc4nc(NC(=O)[C@@H]5CCN(C#N)C5)sc4C3)s2)CC1 [compound 88],77.3
14,N#CN1CC[C@@H](C(=O)Nc2nc3c(s2)CN(C(=O)C2CCN(c4ccc(=O)[nH]n4)CC2)CC3)C1 [compound 89],68.2
15,N#CN1CC[C@@H](C(=O)Nc2nc3c(s2)CN(C(=O)c2cnn(CC4CCCCO4)c2)CC3)C1 (some centres unmarked) [compound 90],81.3
16,Cc1cc(C(=O)N2CCc3nc(NC(=O)[C@@H]4CCN(C#N)C4)sc3C2)c(C2CC2)s1 [compound 91],82.6
17,N#CN1CC[C@@H](C(=O)Nc2nc3c(s2)CN(C(=O)c2ccc(-n4ccnc4)nn2)CC3)C1 [compound 92],64.4
18,N#CN1CC[C@@H](C(=O)Nc2nc3c(s2)CN(C(=O)c2c(-c4ccccc4)noc2C(F)F)CC3)C1 [compound 93],60.9

row,Compound,inhibition at 1.25 µM [%]
1,N#CN1CC[C@@H](C(=O)Nc2nc3c(s2)CN(C(=O)C2(c4ccccc4Cl)CCOCC2)CC3)C1 [compound 94],65.7
2,Cc1noc(C)c1Cc1ccc(C(=O)N2CCc3nc(NC(=O)[C@@H]4CCN(C#N)C4)sc3C2)o1 [compound 95],81.3
3,Cc1cc(NS(=O)(=O)c2cccc(C(=O)N3CCc4nc(NC(=O)[C@@H]5CCN(C#N)C5)sc4C3)c2)no1 [compound 96],77.9
4,CN1CCN(C(=O)C2CC=CCC2C(=O)N2CCc3nc(NC(=O)[C@@H]4CCN(C#N)C4)sc3C2)CC1 (some centres unmarked) [compound 97],72.8
5,N#CN1CC[C@@H](C(=O)Nc2nc3c(s2)CN(C(=O)c2ccc(S(=O)(=O)N4CCOCC4)cc2)CC3)C1 [compound 98],78.4
6,N#CN1CC[C@@H](C(=O)Nc2nc3c(s2)CN(C(=O)Cc2csc(-n4cccc4)n2)CC3)C1 [compound 99],86.7
7,Cc1cc(-c2nc(C)sc2CC(=O)N2CCc3nc(NC(=O)[C@@H]4CCN(C#N)C4)sc3C2)c(C)s1 [compound 100],75.4
8,N#CN1CC[C@@H](C(=O)Nc2nc3c(s2)CN(C(=O)C2CC(=O)N(CCOc4ccccc4Cl)C2)CC3)C1 (some centres unmarked) [compound 101],79.1
9,N#CN1CC[C@@H](C(=O)Nc2nc3c(s2)CN(C(=O)c2ccc(-n4ncc(Cl)c(Cl)c4=O)cc2)CC3)C1 [compound 102],69.3
10,N#CN1CC[C@@H](C(=O)Nc2nc3c(s2)CN(C(=O)c2ccc(CN4CCOCC4)cc2)CC3)C1 [compound 103],86.4
11,N#CN1CC[C@@H](C(=O)Nc2nc3c(s2)CN(C(=O)c2cnc(-c4ccco4)s2)CC3)C1 [compound 104],62.8
12,N#CN1CC[C@@H](C(=O)Nc2nc3c(s2)CN(C(=O)Cc2csc(-c4cccs4)n2)CC3)C1 [compound 105],85.3
13,N#CN1CC[C@@H](C(=O)Nc2nc3c(s2)CN(C(=O)c2csc(-c4ccccn4)n2)CC3)C1 [compound 106],85.1
14,Cc1noc(C)c1COc1ccc(CC(=O)N2CCc3nc(NC(=O)[C@@H]4CCN(C#N)C4)sc3C2)cc1 [compound 107],82.7
15,N#CN1CC[C@@H](C(=O)Nc2nc3c(s2)CN(C(=O)CC2=NN(c4ncc(C(F)(F)F)cc4Cl)C(=O)C2)CC3)C1 [compound 109],68.1
16,N#CN1CC[C@@H](C(=O)Nc2nc3c(s2)CN(C(=O)c2occc2COc2ccccc2)CC3)C1 [compound 111],82.9
17,N#CN1CC[C@@H](C(=O)Nc2nc3c(s2)CN(C(=O)C2CCN(C(=O)CCOc4ccccc4)CC2)CC3)C1 [compound 113],68.7
18,Cn1cc(S(=O)(=O)N2CCCC(C(=O)N3CCc4nc(NC(=O)[C@@H]5CCN(C#N)C5)sc4C3)C2)cn1 (some centres unmarked) [compound 114],68.2
